Measured values reported in paper PMC12066474, “Ex vivo quantification of intracellular pH in Drosophila Malpighian tubule reveals basolateral HCO3 ^−/oxalate exchange through a novel oxalate transporter “Neat”” (Frontiers in Physiology, 2025).

Target: T1, Neat (CG5002) (Drosophila melanogaster, UniProt Q7K4I4)
T1 construct: coding region in pGEMHE, cRNA expressed in Xenopus laevis oocytes
T1 sequence (Q7K4I4 1-595): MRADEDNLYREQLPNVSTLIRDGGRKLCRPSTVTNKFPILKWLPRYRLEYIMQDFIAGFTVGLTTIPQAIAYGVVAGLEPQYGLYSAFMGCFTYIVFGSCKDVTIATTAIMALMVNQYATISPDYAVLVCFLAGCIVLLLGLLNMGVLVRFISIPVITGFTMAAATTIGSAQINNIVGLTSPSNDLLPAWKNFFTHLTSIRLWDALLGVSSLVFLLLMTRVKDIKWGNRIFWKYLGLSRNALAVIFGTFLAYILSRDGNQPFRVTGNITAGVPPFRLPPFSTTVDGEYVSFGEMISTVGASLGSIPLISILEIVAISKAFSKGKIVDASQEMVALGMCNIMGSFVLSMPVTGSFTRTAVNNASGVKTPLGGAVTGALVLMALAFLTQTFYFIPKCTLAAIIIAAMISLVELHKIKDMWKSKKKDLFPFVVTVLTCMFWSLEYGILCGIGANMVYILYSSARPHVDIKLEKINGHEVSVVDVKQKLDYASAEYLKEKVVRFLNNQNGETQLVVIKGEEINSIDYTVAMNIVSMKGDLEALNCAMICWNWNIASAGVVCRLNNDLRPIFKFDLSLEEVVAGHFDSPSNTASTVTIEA
Format: cell-based
Settings: 5% CO2/33 mM HCO3−, pH 7.5

For O=C(O)O [HCO3 ^−], the “intracellular pH microelectrode in Xenopus oocytes” value was “Neat demonstrated electroneutral HCO3 ^− influx in the presence of HCO3 ^−/CO2 buffered saline”.
